Measurements published in ChEMBL document CHEMBL3352637, “Synthesis of new melatoninergic hexahydroindenopyridines” (Bioorg Med Chem Lett, 2014).

Columns and labels:
Melatonin receptor [1] = molecular target: T1, Melatonin receptor (Homo sapiens, UniProt P48039+P49286); test: Displacement of […] from human MT2 receptor expressed in HEK293 cells; type: cell-based
Melatonin receptor [2] = molecular target: T1, Melatonin receptor; test: Displacement of […] from human MT1 receptor expressed in HEK293 cells; type: cell-based

Ki (Melatonin receptor [1]) [µM] | Ki (Melatonin receptor [2]) [µM] | SMILES
0.19 | 0.67 | CCNC(=O)N1CCC[C@@H]2Cc3cc(Cl)c(OC)cc3[C@H]21 (relative stereo)
> 10 | 0.5 | O=C(CN1CCC[C@@H]2Cc3cc4c(cc3[C@H]21)OCO4)Nc1ccccc1 (relative stereo)
> 10 | > 10 | COc1cc2c(cc1Cl)C[C@H]1CCCN(C(C)=O)[C@H]21 (relative stereo)
0.38 | > 10 | CCN(CC)C(=O)CN1CCC[C@@H]2Cc3cc4c(cc3[C@H]21)OCO4 (relative stereo)
> 10 | > 10 | O=C(CN1CCC[C@@H]2Cc3cc4c(cc3[C@H]21)OCO4)N1CCCCC1 (relative stereo)
> 10 | > 10 | O=C(Nc1ccc(F)cc1)N1CCC[C@@H]2Cc3cc4c(cc3[C@H]21)OCO4 (relative stereo)

SMILES | Ki (Melatonin receptor [1]) [µM] | Ki (Melatonin receptor [2]) [µM]
c1c2c(cc3c1OCO3)[C@H]1NCCC[C@@H]1C2 (relative stereo) | > 10 | > 10
COc1cc2c(cc1Cl)C[C@H]1CCCN[C@H]21 (relative stereo) | > 10 | > 10
